Measured values from patent US20210238138A1, “Method for improving nucleation of crystals from solution” (Université Libre de Bruxelles, priority 2018, published 2021).

What was measured:
Type in all cases: physicochemical
[1] = Maturing of acetylsalicylic acid crystals (growth treatment, early filtration); details: 3 m tubing, Tc 15° C., σ 4.5, 30 mL/min; for Sphere Equivalent Diameter: thickness set to ⅕ of width
Protocol: Obtaining different crystal sizes as end-product then depends on the time that is given to the crystals to mature further. […] To further proof the effect of early filtration (see table 10), the liquor of tests 43 and 44 were also directly filtered after exiting the tubing (test 49 and 50, respectively); the product of test 44 was also collected for 2 minutes and filtered afterwards (test 51).

[2] = Transient time and distance of aspirin solution in tubing; details: 200 mg/mL in ethanol/water 50/50 vol %, start 60° C., water bath 10° C.; for Transient distance: flow rate 30 mL/min
Description: Two different capillaries of dimensions 1000 and 1500 μm inner diameter ID were used for a test using the setup of FIG. 1 in which the evolution of temperature inside the tubing was experimentally investigated at different distances.
The transition time is defined as the time necessary to reach crystallization conditions in the used setup (i.e. time for a fluid particle flowing in the liquid to get from undersaturated conditions to nucleation conditions). Therefore, this time is at a given concentration dominated by the difference in temperature between the solubility temperature and the metastable zone width or MSZW. At temperatures below this MSZW the solute in solution starts to nucleate spontaneously. […] (both measured). The transition time is then defined as the time needed to overcome this 20° C. difference in temperature.
As a consequence, for a 1500 μm inner diameter tubing, the total tubing length necessary to conduct crystallization is a multitude of the corresponding transient distance, making any workable application impossible: about 3.5 m are necessary to overcome the solubility time; 3.5 m to reach transient distance and approximately the 4 times the transient distance is necessary to increase sufficiently the induction time. The transient distance is defined as the distance the liquid is transferred during the transient time at a given flow rate.

[3] = Cooling crystallisation of acetylsalicylic acid in ethanol/water in capillary tubing
[4] = Antisolvent (hexane) crystallisation of Brivaracetam/IPAc in capillary tubing; details: for Crystals Mean maximum length: inner diameter 500 μm, flows 20 and 20 mL · min^−1
Protocol: The length of the capillary tube has also been varied. In the following tests, antisolvent hexane at 4° C. was added to a solution of Brivaracetam/IPAc. It became clear that for these cases different lengths of tubing are to be investigated, as too long tube results into blockage of the tubes due to too high solid content in suspension in the solution, as reported in table 6. In all cases, the preferred rods form was observed.

[5] = test 49: 200 mg/mL ethanol/water 50/50 vol %, restriction 1 of 250 μm ID, filtration At exit
[6] = test 50: 200 mg/mL ethanol/water 50/50 vol %, restriction 2 of 250 μm ID, filtration At exit
[7] = test 51: 200 mg/mL ethanol/water 50/50 vol %, restriction 2 of 250 μm ID, filtration After 120 s
[8] = 200 mg/mL 50 vol % ethanol/water, residence time 5.3 s, initial 65° C., bath 10° C., tubing ID 1000 μm, flow rate 20 mL/min, tubing length 2.5 m
[9] = test 40: 200 mg/mL ethanol/water 50/50 vol %, 3 m tubing, Tc 15° C., σ 4.5, 30 mL/min, restriction 0, average of 10 tests
[10] = test 41: 200 mg/mL ethanol/water 50/50 vol %, 3 m tubing, Tc 15° C., σ 4.5, 30 mL/min, restriction 1 of 500 μm ID, average of 10 tests
[11] = test 42: 200 mg/mL ethanol/water 50/50 vol %, 3 m tubing, Tc 15° C., σ 4.5, 30 mL/min, restriction 2 of 500 μm ID, average of 10 tests
[12] = test 43: 200 mg/mL ethanol/water 50/50 vol %, 3 m tubing, Tc 15° C., σ 4.5, 30 mL/min, restriction 1 of 250 μm ID, average of 10 tests
[13] = test 44: 200 mg/mL ethanol/water 50/50 vol %, 3 m tubing, Tc 15° C., σ 4.5, 30 mL/min, restriction 2 of 250 μm ID, average of 10 tests

CC(=O)Oc1ccccc1C(=O)O [Acetylsalicylic acid, acetylsalicylic acid]
Crystal length [1, 5]: 104 ± 55 μm | Crystal width [1, 5]: 28 ± 13 μm | Sphere Equivalent Diameter [1, 5]: 32 ± 7 μm | Crystal width [1, 6]: 23 ± 17 μm | Sphere Equivalent Diameter [1, 6]: 24 ± 8 μm | Crystal length [1, 7]: 155 ± 91 μm | Crystal width [1, 7]: 36 ± 17 μm | Transient time ([2]; tubing 1000 μm): 1 000 ms | Transient distance ([2]; tubing 1000 μm): 1.3 m | Transient time ([2]; tubing 1500 μm): 5 700 ms | Transient distance ([2]; tubing 1500 μm): 3.5 m | Nucleation rate J ([3]; 200 mg/mL 50 vol % ethanol/water, residence time 5.3 s, initial 65° C., bath 10° C., tubing ID 750 μm, flow rate 20 mL/min, tubing length 4.2 m): 50 000 mL^−1 · s−^1 | Crystal length ([3]; 200 mg/mL 50 vol % ethanol/water, residence time 5.3 s, initial 65° C., bath 10° C., tubing ID 750 μm, flow rate 30 mL/min, tubing length 6.2 m): 285 μm | Crystal length [3, 8]: 1279 μm | Nucleation rate J [3, 8]: 1400 mL^−1 · s−^1 | Nucleation rate J ([3]; 200 mg/mL 50 vol % ethanol/water, residence time 5.3 s, initial 65° C., bath 10° C., tubing ID 1000 μm, flow rate 30 mL/min, tubing length 3.6 m): 54 000 mL^−1 · s−^1 | Nucleation rate J ([3]; 200 mg/mL 50 vol % ethanol/water, residence time 5.3 s, initial 65° C., bath 10° C., tubing ID 1000 μm, flow rate 40 mL/min, tubing length 4.7 m): 112 000 mL^−1 · s−^1 | Crystal length ([3]; 200 mg/mL 50 vol % ethanol/water, residence time 5.3 s, initial 65° C., bath 10° C., tubing ID 1500 μm, flow rate 20 mL/min, tubing length 1.2 m): No crystallization observed | Crystal length ([3]; 200 mg/mL 50 vol % ethanol/water, residence time 5.3 s, initial 65° C., bath 10° C., tubing ID 1500 μm, flow rate 30 mL/min, tubing length 1.7 m): No crystallization observed | Crystal length ([3]; 200 mg/mL 50 vol % ethanol/water, residence time 5.3 s, initial 65° C., bath 10° C., tubing ID 1500 μm, flow rate 40 mL/min, tubing length 2.2 m): No crystallization observed | Crystal length ([3]; test 34: 300 mg/mL ethanol-water, Tc 15° C., σ 27, Q 30 mL/min, tubing length 7 m, diameter 500 μm, 4 restrictions 1 mm long, 500 μm): Tube blocked | Crystal length ([3]; test 35: 300 mg/mL ethanol-water, Tc 10° C., σ 27, Q 30 mL/min, tubing length 6 m, diameter 750 μm, 4 restrictions 1 mm long, 500 μm): Tube blocked | Crystal length ([3]; test 36: 300 mg/mL ethanol-water, Tc 10° C., σ 27, Q 30 mL/min, tubing length 5 m, diameter 500 μm, 4 restrictions 1 mm long, 500 μm): Tube blocked | Crystal length ([3]; test 37: 300 mg/mL ethanol-water, Tc 10° C., σ 27, Q 30 mL/min, tubing length 3 m, diameter 500 μm, 4 restrictions 1 mm long, 500 μm): 800 ± 68 μm | Crystal length ([3]; test 38: 300 mg/mL ethanol-water, Tc 10° C., σ 27, Q 30 mL/min, tubing length 3 m, diameter 500 μm, 4 restrictions 1 mm long, 500 μm): 820 ± 80 μm | Crystal length ([3]; test 39: 300 mg/mL ethanol-water, Tc 10° C., σ 27, Q 30 mL/min, tubing length 3 m, diameter 500 μm, 4 restrictions 1 mm long, 500 μm): 795 ± 73 μm | Crystal length [3, 9]: 1319 ± 167 μm | Nucleation rate [3, 9]: 2300 mL⁻¹ s⁻¹ | Sphere Equivalent Diameter [3, 9]: 449 ± 74 μm | Crystal length [3, 10]: 1398 ± 100 μm | Nucleation rate [3, 10]: 1900 mL⁻¹ s⁻¹ | Sphere Equivalent Diameter [3, 10]: 490 ± 85 μm | Crystal length [3, 11]: 1049 ± 179 μm | Nucleation rate [3, 11]: 3700 mL⁻¹ s⁻¹ | Sphere Equivalent Diameter [3, 11]: 348 ± 104 μm | Crystal length [3, 12]: 962 ± 82 μm | Nucleation rate [3, 12]: 5300 mL⁻¹ s⁻¹ | Sphere Equivalent Diameter [3, 12]: 328 ± 31 μm | Crystal length [3, 13]: 393 ± 35 μm | Nucleation rate [3, 13]: 130 000 mL^−1 · s^−1 | Sphere Equivalent Diameter [3, 13]: 117 ± 20 μm | Crystal depth as fraction of the width ([3]; tests 43 and 44 (250 μm inner diameter restrictions), 200 mg/mL ethanol/water 50/50): about ⅕

CCC[C@@H]1CC(=O)N([C@@H](CC)C(N)=O)C1 [Brivaracetam]
Crystal form observed ([4]; all antisolvent (hexane) tests of tables 5 and 6): rods | Crystals Mean maximum length ([4]; test 22: 150 mg · mL^−1 in IPAc, σ 8.4, hexane antisolvent, tubular length 18 cm): 6 ± 2 μm | Crystals Mean maximum length ([4]; test 23: 150 mg · mL^−1 in IPAc, σ 8.4, hexane antisolvent, tubular length 33 cm): 9 ± 5 μm | Crystals Mean maximum length ([4]; test 24: 150 mg · mL^−1 in IPAc, σ 8.4, hexane antisolvent, tubular length 50 cm): 10 ± 5 μm | Crystals Mean maximum length ([4]; test 25: 150 mg · mL^−1 in IPAc, σ 8.4, hexane antisolvent, tubular length 50 cm): 9 ± 4 μm | Crystals Mean maximum length ([4]; test 26: 150 mg · mL^−1 in IPAc, σ 8.4, hexane antisolvent, tubular length 100 cm): Blocked tube | Crystals Mean maximum length ([4]; test 27: 200 mg · mL^−1 in IPAc, σ 11.5, hexane antisolvent, tubular length 18 cm): 12 ± 6 μm | Crystals Mean maximum length ([4]; test 28: 200 mg · mL^−1 in IPAc, σ 11.5, hexane antisolvent, tubular length 33 cm): 7 ± 3 μm | Crystals Mean maximum length ([4]; test 29: 200 mg · mL^−1 in IPAc, σ 11.5, hexane antisolvent, tubular length 50 cm): 9 ± 5 μm | Crystals Mean maximum length ([4]; test 30: 200 mg · mL^−1 in IPAc, σ 11.5, hexane antisolvent, tubular length 50 cm): 7 ± 3 μm | Crystals Mean maximum length ([4]; test 31: 200 mg · mL^−1 in IPAc, σ 11.5, hexane antisolvent, tubular length 100 cm): Blocked tube | Crystals Mean maximum length ([4]; test 32: 300 mg · mL^−1 in IPAc, σ 17.8, hexane antisolvent, tubular length 50 cm): 8 ± 3 μm | Crystals Mean maximum length ([4]; test 33: 300 mg · mL^−1 in IPAc, σ 17.8, hexane antisolvent, tubular length 100 cm): Blocked tube
